pIC50: −log10 of the molar value. Active and inactive are the calls of the source. No cut-off for these calls is given here.
Assays:
[1] = Cytotoxicity against mouse NIH/3T3 cells assessed as reduction in cell viability after 72 hrs by MTT assay; type: toxicity, cell-based, NIH3T3
[2] = Cytotoxicity against human HeLaS3 cells assessed as reduction in cell viability after 72 hrs by MTT assay; type: functional, cell-based; conditions: HeLa S3, 72 h
[3] = tested on: Salmonidae; assay: Binding affinity to salmon sperm DNA assessed as DNA intercalation at 0.04 mole fraction after 5 mins by UV-Vis spectroscopic method
[4] = Cytotoxicity against mouse Sarcoma 180 cells assessed as reduction in cell viability after 72 hrs by MTT assay; type: functional, cell-based; conditions: Sarcoma-180, 72 h
[5] = Ratio of Ka for synthetic biotin-labeled 30-mer GC-rich duplex DNA in presence of 200 mM NaCl to Ka for synthetic biotin-labeled 30-mer GC-rich duplex DNA in presence of 50 mM NaCl
[6] = Binding affinity to synthetic biotin-labeled 30-mer GC-rich duplex DNA in pH 7.4 EDTA buffer solution in presence of 200 mM NaCl at 25 degC by QCM sensogram analysis
[7] = Binding affinity to synthetic biotin-labeled 30-mer GC-rich duplex DNA in pH 7.4 EDTA buffer solution in presence of 50 mM NaCl at 25 degC by QCM sensogram analysis
[8] = Binding affinity to synthetic biotin-labeled 30-mer GC-rich duplex DNA in pH 7.4 EDTA buffer solution in presence of 0.05 M NaCl at 25 degC by QCM sensogram analysis
[9] = Binding affinity to synthetic biotin-labeled 30-mer AT-rich duplex DNA in pH 7.4 EDTA buffer solution in presence of 0.05 M NaCl at 25 degC by QCM sensogram analysis
[10] = Selectivity index, ratio of IC50 for mouse NIH/3T3 cells to IC50 for mouse Sarcoma 180 cells; type: functional
[11] = tested on: HeLa S3; assay: Selectivity ratio of IC50 for human HeLaS3 cells to IC50 for mouse Sarcoma 180 cells; type: functional
[12] = Binding affinity to synthetic biotin-labeled 30-mer GC-rich duplex DNA in pH 7.4 EDTA buffer solution assessed as dissociation rate constant in presence of 0.05 M NaCl at 25 degC by QCM sensogram analysis
[13] = Binding affinity to synthetic biotin-labeled 30-mer GC-rich duplex DNA in pH 7.4 EDTA buffer solution assessed as association rate constant in presence of 0.05 M NaCl at 25 degC by QCM sensogram analysis
[14] = Binding affinity to synthetic biotin-labeled 30-mer AT-rich duplex DNA in pH 7.4 EDTA buffer solution assessed as association rate constant in presence of 0.05 M NaCl at 25 degC by QCM sensogram analysis
[15] = Binding affinity to synthetic biotin-labeled 30-mer AT-rich duplex DNA in pH 7.4 EDTA buffer solution assessed as dissociation rate constant in presence of 0.05 M NaCl at 25 degC by QCM sensogram analysis
[16] = Binding affinity to synthetic biotin-labeled 30-mer AT-rich duplex DNA in pH 7.4 EDTA buffer solution assessed as ratio of association rate constant to dissociation rate constant in presence of 0.05 M NaCl at 25 degC by QCM sensogram analysis
[17] = Binding affinity to synthetic biotin-labeled 30-mer GC-rich duplex DNA in pH 7.4 EDTA buffer solution assessed as ratio of association rate constant to dissociation rate constant in presence of 0.05 M NaCl at 25 degC by QCM sensogram analysis
[18] = Binding affinity to synthetic biotin-labeled 30-mer GC-rich duplex DNA in pH 7.8 Tris-Hcl buffer solution assessed as association rate constant in presence of 0.1 M NaCl at 25 degC by QCM sensogram analysis
[19] = Binding affinity to synthetic biotin-labeled 30-mer AT-rich duplex DNA in pH 7.8 Tris-Hcl buffer solution assessed as association rate constant in presence of 0.1 M NaCl at 25 degC by QCM sensogram analysis
[20] = Binding affinity to synthetic biotin-labeled 30-mer AT-rich duplex DNA in pH 7.8 Tris-Hcl buffer solution assessed as ratio of association rate constant to dissociation rate constant in presence of 0.1 M NaCl at 25 degC by QCM sensogram analysis
[21] = Binding affinity to synthetic biotin-labeled 30-mer AT-rich duplex DNA in pH 7.8 Tris-Hcl buffer solution assessed as dissociation rate constant in presence of 0.1 M NaCl at 25 degC by QCM sensogram analysis
[22] = Binding affinity to synthetic biotin-labeled 30-mer GC-rich duplex DNA in pH 7.8 Tris-Hcl buffer solution assessed as dissociation rate constant in presence of 0.1 M NaCl at 25 degC by QCM sensogram analysis
[23] = Binding affinity to synthetic biotin-labeled 30-mer GC-rich duplex DNA in pH 7.8 Tris-Hcl buffer solution assessed as ratio of association rate constant to dissociation rate constant in presence of 0.1 M NaCl at 25 degC by QCM sensogram analysis

Row | Compound | IC50 at 72 h [1] | pIC50 [2] | Activity [3] | pIC50 [4] | other results
1 | COC(=O)c1c2cc[n+](C)cc2c(C)c2c1[nH]c1ccccc12 | 1.2 µM | 5.92 | Active | 6.00 | 
2 | CNC(=O)NCCOCC[n+]1ccc2c(C)c3[nH]c4ccccc4c3c(C)c2c1 |  |  | Active |  | Ratio [5]: 0.4 to 0.5; Ka [6]: 5.99 ×10⁵ /M; Ka [7]: 9.92 ×10⁵ /M; Ka [8]: 9.9 ×10⁵ /M; Ka [9]: 3.59 ×10⁵ /M
3 | Cc1c2c[n+](C)ccc2c(C(=O)NCCCN)c2[nH]c3ccccc3c12 | 42 µM | < 4.59 | Active | 4.59 | 
4 | Cc1c2c[n+](C)ccc2c(C(=O)NCCOCCN)c2[nH]c3ccccc3c12 | 60 µM | < 4.00 | Active | 4.32 | 
5 | COC(=O)c1c2cc[n+](CCNCCN)cc2c(C)c2c1[nH]c1ccccc12 | 1.87 µM |  | Active | 5.92 | 
6 | Cc1c2ccncc2c(C)c2c1[nH]c1ccccc12 [ELLIPTECINE] | 0.3 µM | 5.68 | Active | 5.70 | 
7 | Cc1c2cc[n+](CCOCCN)cc2c(C)c2c1[nH]c1ccccc12.[Cl-] | 8.8 µM |  | Active | 6.10 | Ratio IC50 [10]: 3 - 24; Ratio IC50 [11]: 13 - 37
8 | CNC(=O)NCCOCC[n+]1ccc2c(C)c3[nH]c4ccc(O)cc4c3c(C)c2c1.[Cl-] | 5 µM |  | Active | 5.66 | Ratio IC50 [10]: 3 - 24; Ratio IC50 [11]: 13 - 37
9 | CNC(=O)NCCCNC(=O)c1c2cc[n+](C)cc2c(C)c2c1[nH]c1ccccc12 | 31 µM | < 4.66 | Active | 4.47 | 
10 | COc1ccc2[nH]c3c(C(=O)NCCN)c4ccncc4c(C)c3c2c1 |  | 5.98 |  |  | 
11 | Cc1c2c[n+](C)ccc2c(C(=O)NCCN)c2[nH]c3ccccc3c12 | 70 µM | < 4.00 | Active | 4.26 | 
12 | CNC(=O)NCCCCC[n+]1ccc2c(C)c3c(c(C)c2c1)c1cc(O)ccc1n3C |  |  |  |  | Ratio [5]: 0.4 to 0.5; Ka [6]: 17.9 ×10⁵ /M; Ka [7]: 28.5 ×10⁵ /M; Ka [8]: 28.5 ×10⁵ /M; Ka [9]: 15.8 ×10⁵ /M
13 | Cc1c2cnccc2c(C(=O)NCCN)c2[nH]c3ccccc3c12 | 1.4 µM | 5.62 | Active | 5.66 | 
14 | COc1ccc2[nH]c3c(C(=O)NCCN)c4cc[n+](C)cc4c(C)c3c2c1 |  | < 4.00 | Active | 4.24 | 
15 | Cc1c2cc[n+](CCN)cc2c(C)c2c1[nH]c1ccccc12 |  | 5.18 | Active | 5.49 | 
16 | CNC(=O)NCCCCNC(=O)c1c2ccncc2c(C)c2c1[nH]c1ccccc12 |  |  |  |  | Ka [8]: 0.427 ×10⁵ /M; Ka [9]: 0.185 ×10⁵ /M
17 | CNC(=O)NCCOCC[n+]1ccc2c(C(=O)OC)c3[nH]c4ccccc4c3c(C)c2c1 |  |  | Active |  | Ka [8]: 14.8 ×10⁵ /M; Ka [9]: 7.41 ×10⁵ /M
18 | Cc1c2cnccc2c(C)c2c1c1ccccc1n2C |  | 6.03 | Active | 6.30 | 
19 | CNC(=O)NCCNCCNC(=O)c1c2cc[n+](C)cc2c(C)c2c1[nH]c1ccccc12 | 45 µM | < 4.00 |  | 4.11 | 
20 | Cc1c2c[n+](C)ccc2c(C(=O)NCCCCCN)c2[nH]c3ccccc3c12 | 32 µM | < 4.00 | Active | 4.68 | 
21 | CNC(=O)NCCNC(=O)c1c2ccncc2c(C)c2c1[nH]c1ccccc12 | 11 µM | 4.82 | Active | 4.82 | 

Row | Compound | IC50 at 72 h [1] | pIC50 [2] | Activity [3] | pIC50 [4] | other results
22 | COC(=O)c1c2cc[n+](CCN)cc2c(C)c2c1[nH]c1ccccc12.[Cl-] | 0.78 µM |  | Active | 6.28 | Ratio IC50 [10]: 3 - 24; Ratio IC50 [11]: 13 - 37
23 | CNC(=O)NCCNC(=O)c1c2cc[n+](C)cc2c(C)c2c1[nH]c1ccc(OC)cc12 |  | 4.49 | Active |  | 
24 | Cc1c2c[n+](C)ccc2c(C(=O)NCCCCN)c2[nH]c3ccccc3c12 | > 100 µM | < 4.00 | Active | < 4.00 | 
25 | Cc1c2ccncc2c(C)c2c1[nH]c1ccc(O)cc12 | 0.9 µM |  | Active | 6.36 | 
26 | Cc1c2cc[n+](C)cc2c(C)c2c1[nH]c1ccc(O)cc12 |  |  | Active |  | K [12]: 2.01 ×10⁻³ /s; K [13]: 1.28 ×10⁴ /M/s; K [14]: 0.78 ×10⁴ /M/s; K [15]: 8.05 ×10⁻³ /s; Ka [8]: 47.2 ×10⁵ /M; Ratio [16]: 0.97 ×10⁶ /M; Ka [9]: 35.1 ×10⁵ /M; Ratio [17]: 6.37 ×10⁶ /M
27 | CNC(=O)NCCCCNC(=O)c1c2cc[n+](C)cc2c(C)c2c1[nH]c1ccccc12 | > 100 µM | 4.02 | Active | < 4.06 | 
28 | Cc1c2cnccc2c(C(=O)NCCCCN)c2[nH]c3ccccc3c12 |  |  |  |  | Ka [8]: 0.733 ×10⁵ /M; Ka [9]: 0.279 ×10⁵ /M
29 | CNC(=O)NCCOCC[n+]1ccc2c(C)c3c(c(C)c2c1)c1cc(O)ccc1n3C | 1.6 µM |  | Active | 5.57 | 
30 | CNC(=O)NCCCCCNC(=O)c1c2cc[n+](C)cc2c(C)c2c1[nH]c1ccccc12 | 37 µM | < 4.00 | Active | 4.10 | 
31 | COC(=O)c1c2cc[n+](CCOCCN)cc2c(C)c2c1[nH]c1ccccc12.[Cl-] | 1.75 µM |  | Active | 5.95 | Ratio IC50 [10]: 3 - 24; Ratio IC50 [11]: 13 - 37
32 | Cc1c2c[n+](CCN)ccc2cc2[nH]c3ccccc3c12 |  |  | Active |  | Ka [8]: 8.33 ×10⁵ /M; Ka [9]: 4.29 ×10⁵ /M
33 | Cc1c2c[n+](C)ccc2c(C(=O)NCCNCCN)c2[nH]c3ccccc3c12 | 86 µM |  | Active | < 4.00 | 
34 | CNC(=O)NCCNC(=O)c1c2cc[n+](C)cc2c(C)c2c1[nH]c1ccccc12 | > 100 µM | < 4.00 | Active | < 4.00 | 
35 | Cc1c2cc[n+](C)cc2c(C)c2c1[nH]c1ccccc12 | 2 µM | 5.54 | Active | 6.15 | 
36 | CNC(=O)NCCNC(=O)c1c2ccncc2c(C)c2c1[nH]c1ccc(OC)cc12 |  | 5.12 |  |  | 
37 | Cc1c2cc[n+](CCOCCN)cc2c(C)c2c1[nH]c1ccc(O)cc12.[Cl-] | 2.4 µM |  | Active | 6.00 | Ratio IC50 [10]: 3 - 24; Ratio IC50 [11]: 13 - 37
38 | Cc1c2c[n+](CCOCCN)ccc2c(C)c2c1c1cc(O)ccc1n2C |  |  | Active |  | Ratio [5]: 0.4 to 0.5; Ka [6]: 162 ×10⁵ /M; Ka [7]: 311 ×10⁵ /M; Ka [8]: 311 ×10⁵ /M; Ka [9]: 102 ×10⁵ /M
39 | CNC(=O)NCCOCCNC(=O)c1c2cc[n+](C)cc2c(C)c2c1[nH]c1ccccc12 | 18 µM |  | Active | 4.39 | 
40 | CC[n+]1c(-c2ccccc2)c2cc(N)ccc2c2ccc(N)cc21 |  |  |  |  | K [18]: 1.2 ×10⁴ /M/s; K [19]: 0.17 ×10⁴ /M/s; Ratio [20]: 0.011 ×10⁶ /M; K [21]: 150 ×10⁻³ /s; K [22]: 210 ×10⁻³ /s; Ratio [23]: 0.056 ×10⁶ /M
41 | Cc1c2c[n+](CCCCCN)ccc2c(C)c2c1c1cc(O)ccc1n2C.[Cl-] |  |  | Active | 5.85 | Ratio IC50 [10]: 3 - 24; Ratio IC50 [11]: 13 - 37
